# Source: PMC3095698 (Journal of molecular biology, 2011)
# How the values were obtained:
# Type in all cases: biochemical
# c-myc-PIP5K Iα = c-myc-PIP5K Iα (Homo sapiens, UniProt Q99755); assay: activation of DP-PI; conditions: activator; 20 μM DP-PI(4)P, 50 μM PA, 50 μM ATP
# 3×HA-DGKα [1] = target: 3×HA-DGKα (Homo sapiens, UniProt P23743); assay: […]-ATP phosphorylation in Triton X-100 mixed micelles, COS-7 lysate; conditions: 0.1 mM ATP, 5 mM MgCl2, pH 7.5, 25 °C; DOPS in micelles; surface mole percent
# Chain of 3×HA-DGKα (Homo sapiens, UniProt P23743) (P23743 whole entry): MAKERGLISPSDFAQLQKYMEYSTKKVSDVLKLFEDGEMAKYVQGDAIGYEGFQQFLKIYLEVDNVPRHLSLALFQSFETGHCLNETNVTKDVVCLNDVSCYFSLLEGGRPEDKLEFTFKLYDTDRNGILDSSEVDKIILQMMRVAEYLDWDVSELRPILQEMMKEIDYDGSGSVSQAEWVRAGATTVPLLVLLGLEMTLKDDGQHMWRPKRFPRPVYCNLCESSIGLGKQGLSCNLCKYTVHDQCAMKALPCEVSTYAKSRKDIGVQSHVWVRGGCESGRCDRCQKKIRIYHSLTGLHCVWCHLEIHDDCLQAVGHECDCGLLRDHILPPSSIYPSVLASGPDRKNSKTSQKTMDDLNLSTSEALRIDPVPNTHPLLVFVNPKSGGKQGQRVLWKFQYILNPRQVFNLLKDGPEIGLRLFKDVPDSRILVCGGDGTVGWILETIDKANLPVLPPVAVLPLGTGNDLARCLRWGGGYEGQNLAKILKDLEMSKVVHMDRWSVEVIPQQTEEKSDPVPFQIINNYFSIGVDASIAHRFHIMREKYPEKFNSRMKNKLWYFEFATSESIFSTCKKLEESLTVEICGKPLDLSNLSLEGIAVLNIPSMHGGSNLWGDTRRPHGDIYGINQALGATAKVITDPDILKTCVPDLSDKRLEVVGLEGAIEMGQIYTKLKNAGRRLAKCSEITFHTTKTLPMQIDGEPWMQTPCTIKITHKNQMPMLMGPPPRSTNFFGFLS
# 3×HA-DGKα [2] = target: 3×HA-DGKα (Homo sapiens, UniProt P23743, V656L); assay: as above; conditions: 0.1 mM ATP, 5 mM MgCl2, pH 7.5, 25 °C; DOPS in micelles; surface mole percent
# Chain of 3×HA-DGKα (Homo sapiens, UniProt P23743, V656L) (P23743 whole entry V656L): as the sequence (P23743 whole entry) above, with V656L counted along it
# Chain of c-myc-PIP5K Iα (Q99755 whole entry): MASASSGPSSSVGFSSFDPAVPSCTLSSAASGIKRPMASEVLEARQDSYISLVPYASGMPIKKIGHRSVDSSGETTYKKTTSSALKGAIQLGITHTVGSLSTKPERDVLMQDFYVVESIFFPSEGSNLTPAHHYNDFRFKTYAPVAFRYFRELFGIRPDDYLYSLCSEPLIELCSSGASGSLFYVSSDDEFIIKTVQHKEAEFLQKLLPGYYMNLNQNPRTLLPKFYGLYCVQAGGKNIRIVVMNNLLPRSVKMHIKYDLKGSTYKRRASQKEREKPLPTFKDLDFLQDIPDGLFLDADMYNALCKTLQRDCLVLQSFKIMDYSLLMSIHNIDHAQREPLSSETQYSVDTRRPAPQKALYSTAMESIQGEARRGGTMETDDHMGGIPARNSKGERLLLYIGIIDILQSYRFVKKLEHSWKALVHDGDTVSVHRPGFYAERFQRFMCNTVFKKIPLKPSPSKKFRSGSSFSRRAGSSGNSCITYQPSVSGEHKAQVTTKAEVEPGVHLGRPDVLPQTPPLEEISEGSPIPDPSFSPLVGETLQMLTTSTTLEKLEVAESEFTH
fold activation (c-myc-PIP5K Iα) [fold],"Km, mol% (3×HA-DGKα [1]) [mol%]","Km, mol% (3×HA-DGKα [2]) [mol%]",Compound
12,,,"CCCCC/C=C\C/C=C\C/C=C\C/C=C\CCCC(=O)OC[C@H](COP(=O)(O)O)OC(=O)CCC/C=C\C/C=C\C/C=C\C/C=C\CCCCC [DAPA, 1,2-Diarachidonoyl phosphatidic acid]"
,2.1 ± 0.4,1.8 ± 0.3,"CCCCC/C=C\C/C=C\C/C=C\C/C=C\CCCC(=O)O[C@@H](CO)COC(=O)CCCCCCCCCCCCCCCCC [SAG, 1-Stearoyl-2-arachidonoyl-sn-glycerol]"
,2.8 ± 0.3,1.5 ± 0.4,"CCCCC/C=C\C/C=C\CCCCCCCC(=O)O[C@@H](CO)COC(=O)CCCCCCCCCCCCCCCCC [SLG, 1-Stearoyl-2-linoleoyl-sn-glycerol]"
